In brackets after ≈: the same amount, converted by molar mass.
How the values were obtained:
HT29 cells [1] = assay: Cell morphology of HT29 cells, Giemsa staining, optical microscope; assay type: cell-based, human; details: different concentrations, 24 hours, 10% Giemsa, FIG. 4
[2] = Partition coefficient between layers of a two-phase solvent system (HPLC peak area); assay type: physicochemical; details: Hexane-EtOAc—MeOH—H2O 12.24.16.9, from peak areas of lower and upper layer
HT29 cells [3] = assay: Cell cycle distribution of HT29 cells by flow cytometry; assay type: cell-based, human; details: increasing concentrations, FIG. 5
Description: The cell cycle of treated cells was examined by flow cytometry.

HT29 cells [4] = assay: MTT cell viability assay in HT29 cells; assay type: cell-based, human; details: for concentrations that greatly reduced cell viability in HT29 cells: 24 hours, MTT, Table 9; for IC50: Homo sapiens, HT-29, 24 h, read-out: IC50 on HT29 cells
Experimental: HT cells were treated with the diluted cucrubitacin E and I (100-1.56 μg/ml). After the cells were treated for 24 hours, cell viability was determined by MTT assay, which quantitatively measures the metabolic activity of living cells.
The effects of the extract of Aquilaria agallocha Roxb. hulls on cell toxicity in T24 cells (human bladder carcinoma cells), HT29 cells (human colon adenocarcinoma cells), HeLa cells (cervical carcinoma cells), AGS cells (gastric epithelial cancer cells) and Hep G2 lo cells (human hepatocellular liver carcinoma cells) were tested. The above-mentioned cells were treated with the extract of Aquilaria agallocha Roxb. hulls. The procedures of the cell toxicity test were the same as those mentioned in Example 5.

P-388 leukemia cells = assay: MTT assay in P-388 leukemia cells; assay type: cell-based; details: for IC50: Mus musculus, P388, P-388 cells; for concentrations that inhibited cell proliferation in P-388 cells: Table 9
Experimental: HT cells were treated with the diluted cucrubitacin E and I (100-1.56 μg/ml). After the cells were treated for 24 hours, cell viability was determined by MTT assay, which quantitatively measures the metabolic activity of living cells. […] Please see Table 9.
In addition to HT29 cells, P-388 leukemia cells were also determined by MTT assay. […] Please see Table 9.

[5] = Description: Sephadex LH-20 gel (1.5 cm i.d.×36 cm) was used in the molecular sieve chromatography and methanol was used as the mobile phase.

Row | SMILES | cell morphology of HT29 cells (HT29 cells [1]) | partition coefficient [2] | cell cycle distribution, sub-G1 population (HT29 cells [3]) | concentrations that greatly reduced cell viability in HT29 cells (HT29 cells [4]) | IC50 (HT29 cells [4]) | IC50 (P-388 leukemia cells) | concentrations that inhibited cell proliferation in P-388 cells (P-388 leukemia cells) | solubility, in words [5]
1 | CC(=O)OC(C)(C)/C=C/C(=O)[C@](C)(O)C1[C@H](O)C[C@@]2(C)C3CC=C4C(C=C(O)C(=O)C4(C)C)[C@]3(C)C(=O)C[C@]12C (some centres unmarked) [Cucurbitacin E, cucurbitacin E] | the nucleus were squeezed and the chromatin was condensed | 0.90 | sub-G1 populations increased | above 14.1 μM | 14.1 µg/mL (≈ 25.3 µM) | 6.5 µg/mL (≈ 11.7 µM) | above 6.5 μM | 
2 | CC(C)(O)/C=C/C(=O)[C@](C)(O)C1[C@H](O)C[C@@]2(C)C3CC=C4C(C=C(O)C(=O)C4(C)C)[C@]3(C)C(=O)C[C@]12C (some centres unmarked) [Cucurbitacin I, cucurbitacin I] | the nucleus were squeezed and the chromatin was condensed | 0.42 | sub-G1 populations increased | > 15.8 µM | 15.8 µg/mL (≈ 30.7 µM) | 7.4 µg/mL (≈ 14.4 µM) | > 7.4 µM | 
3 | CC(=O)OC(C)(C)/C=C/C(=O)[C@](C)(O)C1[C@H](O)C[C@@]2(C)C3CC=C4C(C=C(O[C@@H]5OC(CO)[C@@H](O)C(O)C5O)C(=O)C4(C)C)[C@]3(C)C(=O)C[C@]12C (some centres unmarked) [cucurbitacin E glucoside] |  | 0.05 |  |  |  |  |  | 
4 | CC(C)(O)/C=C/C(=O)[C@](C)(O)C1[C@H](O)C[C@@]2(C)C3CC=C4C(C=C(O[C@@H]5OC(CO)[C@@H](O)C(O)C5O)C(=O)C4(C)C)[C@]3(C)C(=O)C[C@]12C (some centres unmarked) [cucurbitacin I glucoside] |  | 0.03 |  |  |  |  |  | 
5 | O=c1c2cc(O)c(O)cc2oc2cc(O)c([C@@H]3O[C@H](CO)[C@@H](O)[C@H](O)[C@H]3O)c(O)c12 [mangiferin] |  |  |  |  |  |  |  | hard to dissolve in methanol

Source: patent US8168238B2, “Extracts of Aquilaria hulls and use thereof in the treatment of cancer” (priority 2009, dated 2012)
